The text below walks through data of patent publication US10294202B2, “Pyrrolidinones as herbicides” (FMC Corporation, priority 2013, dated 2019).

Each structure is given as a SMILES string.

Assay [1] relates to pigweed. Put plainly: Test A pre-/postemergence herbicide test. The assay is classed as in vivo, Amaranthus retroflexus. The method, boiled down:
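Seeds sown in loam soil/sand blend received a preemergence directed soil spray of test chemical in non-phytotoxic solvent with surfactant; postemergence plants (2–10 cm, one- to two-leaf stage) were sprayed with the same formulation. After about 10 days in greenhouse, injury was rated visually versus untreated controls, 0 (no effect) to 100 (complete control).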

The test system of assay [2] is foxtail, giant. As to the kind of experiment: Test C pre-/postemergence herbicide test. The assay is classed as in vivo, Setaria faberii. The note with it: Preemergence. The method, boiled down:
(§1)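 Visual rating, 0 (no effect) to 100 (complete control), versus untreated controls after 13 to 15 days in the greenhouse. Pre: seeds in loam/sand, sprayed at planting. Post: 1- to 4-leaf plants (2 to 18 cm) in peat-based mix. Compounds in non-phytotoxic solvent plus surfactant.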

In assay [3] the test system is morningglory. Put plainly: Test C pre-/postemergence herbicide test. As to conditions: Preemergence. The assay is classed as in vivo, Ipomoea coccinea. The method, boiled down:
as §1

Assay [4] relates to galium. As to the kind of experiment: Test C pre-/postemergence herbicide test. The assay is classed as in vivo, Galium aparine. As to conditions: Preemergence. The method, boiled down:
as §1

The subject of assay [5] is rice. As to the kind of experiment: Test C flooded paddy test. The assay is classed as in vivo, Oryza sativa. The note with it: Flood. The method, boiled down:
(§2)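 2-leaf stage; flood 3 cm over soil; compound into paddy water; depth held; greenhouse 13–15 d; visual % control vs untreated (0 = none, 100 = complete); "-" = not tested.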

Assay [6] has as its system kochia. As to the kind of experiment: Test C pre-/postemergence herbicide test. The note with it: Preemergence. The assay is classed as in vivo, Kochia scoparia. A digest of the protocol: as §1
The subject of assay [7] is barnyardgrass. As to the kind of experiment: Test C flooded paddy test. As to conditions: Flood. The assay is classed as in vivo, Echinochloa crus-galli. A digest of the protocol:
as §2

For assay [8], the system named is oat, wild. Put plainly: Test C pre-/postemergence herbicide test. As to conditions: Preemergence. The assay is classed as in vivo, Avena fatua. The method, boiled down:
as §1

[9] abbreviates: 31 g ai/ha, scale 0 to 100 (0 no effect, 100 complete control).
Setting [10] is: 125 g ai/ha, scale 0 to 100 (0 no effect, 100 complete control).
[11] abbreviates: 31 g ai/ha, scale of 0 to 100 where 0 is no effect and 100 is complete control, 13 to 15 days.
Setting [12] is: 62 g ai/ha, scale of 0 to 100 where 0 is no effect and 100 is complete control, 13 to 15 days.
Where [13] appears, read: 125 g ai/ha, scale of 0 to 100 where 0 is no effect and 100 is complete control, 13 to 15 days.

Turning to `O=C1NCC(c2ccc(F)cc2)C1C(=O)Nc1ccccc1F` (racemic) [Compound 16], the “Plant response rating, Pigweed” value in assay [1] (Postemergence, 125 g ai/ha, 0 to 100 scale, 0 no effect, 100 complete control) stood at 0; in assay [1] (Postemergence, 500 g ai/ha, 0 to 100 scale (0 no effect, 100 complete control)) it was 0; in assay [1] (preemergence, 500 g ai/ha, 0 to 100 scale), 0. Besides, the “Pigweed plant response rating” value in assay [1] (Preemergence, 125 g ai/ha, visual rating on 0 to 100 scale (0 no effect, 100 complete control)) was found to be 0. In addition, the “Foxtail, Giant plant response rating” value in assay [2] (setting [9]) amounted to 0. Further, the “Plant response rating, Foxtail, Giant” value in assay [2] (62 g ai/ha, scale 0 to 100) was found to be 70; in assay [2] (setting [10]), 90; in assay [2] (250 g ai/ha, scale 0 to 100 (0 no effect, 100 complete control)) it was 95. In addition, the “Plant response rating, Morningglory” value in assay [3] (62 g ai/ha, scale 0 to 100) is recorded as 0; in assay [3] (setting [10]) it was 0. For the same compound, the “Galium plant response rating” value in assay [4] (setting [9]) is recorded as 0. Moreover, in assay [4] (62 g ai/ha, scale 0 to 100), the “Plant response rating, Galium” value worked out at 0. The “Plant response rating, Rice” value in assay [5] (setting [11]) came to 0; in assay [5] (setting [12]), 0; in assay [5] (setting [13]), 0; in assay [5] (250 g ai/ha, scale 0 to 100), 0. Further, the “Plant response rating, Kochia” value in assay [6] (62 g ai/ha, scale 0 to 100) came to 0; in assay [6] (setting [10]) it was 0. Moreover, the “Plant response rating, Barnyardgrass” value in assay [7] (setting [11]) stood at 0; in assay [7] (setting [12]) it was 0; in assay [7] (setting [13]), 0; in assay [7] (250 g ai/ha, scale 0 to 100), 15. Also, the “Plant response rating, Oat, Wild” value is 5 in assay [8] (62 g ai/ha, scale 0 to 100) and 15 in assay [8] (setting [10]).
